Columns and labels:
[1] = tested on: A549-ACE2 infected with SARS-CoV-2; test: cell count relative to DMSO; higher = less toxic; settings: 24 h
[2] = tested on: Caco-2; test: cell viability relative to DMSO; higher = less toxic; settings: 72 h
[3] = tested on: Calu-3; test: as above; settings: 72 h
[4] = tested on: HepG2; test: as above; settings: 72 h
[5] = tested on: U2OS; test: as above; settings: 72 h
[6] = tested on: Vero E6; test: as above; settings: 72 h
[7] = tested on: A549-ACE2 infected with SARS-CoV-2; test: SARS-CoV-2 infection rate relative to DMSO; higher = more infection; settings: 24 h
[8] = tested on: A549-ACE2; test: phospholipidosis EC50; higher = less potent phospholipidosis inducer
[9] = tested on: A549-ACE2; test: drug-induced phospholipidosis relative to tamoxifen; higher = more phospholipidosis
[10] = tested on: A549-ACE2 infected with SARS-CoV-2; test: morphology score (similarity to uninfected cells); higher = more like uninfected cells; settings: 24 h
[11] = tested on: Caco-2; test: relative viability EC50 (midpoint between 100% and the lowest measured viability); higher = less toxic; settings: 72 h
[12] = tested on: Calu-3; test: as above; settings: 72 h
[13] = tested on: HepG2; test: as above; settings: 72 h
[14] = tested on: U2OS; test: as above; settings: 72 h
[15] = tested on: Vero E6; test: as above; settings: 72 h
[16] = tested on: Caco-2; test: drug sensitivity score (DSS) for viability; higher = more toxic; extreme values may be limits of the assay; settings: 72 h
[17] = tested on: Calu-3; test: as above; settings: 72 h
[18] = tested on: HepG2; test: as above; settings: 72 h
[19] = tested on: U2OS; test: as above; settings: 72 h
[20] = tested on: Vero E6; test: as above; settings: 72 h

O=c1[nH]c2ccccc2n1C1CCN(CCCC(c2ccc(F)cc2)c2ccc(F)cc2)CC1 [pimozide]
Settings	SARS-CoV-2 infection rate [%]	cell count [%]	cell viability [%]	morphology score	phospholipidosis EC50 [µM]
[1], 0.3 µM	–	92	–	–	–
[1], 3 µM	–	108	–	–	–
[1], 10 µM	–	113	–	–	–
[1], 30 µM	–	86	–	–	–
[2], 1 nM	–	–	92.2	–	–
[2], 10 nM	–	–	99.1	–	–
[2], 100 nM	–	–	98	–	–
[2], 1000 nM	–	–	94.6	–	–
[2], 10000 nM	–	–	95.7	–	–
[3], 1 nM	–	–	100	–	–
[3], 10 nM	–	–	95.5	–	–
[3], 100 nM	–	–	95.2	–	–
[3], 1000 nM	–	–	100	–	–
[3], 10000 nM	–	–	93.9	–	–
[4], 1 nM	–	–	119	–	–
[4], 10 nM	–	–	114	–	–
[4], 100 nM	–	–	108	–	–
[4], 1000 nM	–	–	85.2	–	–
[4], 10000 nM	–	–	104	–	–
[5], 1 nM	–	–	99.4	–	–
[5], 10 nM	–	–	102	–	–
[5], 100 nM	–	–	99.5	–	–
[5], 1000 nM	–	–	104	–	–
[5], 10000 nM	–	–	94.6	–	–
[6], 1 nM	–	–	106	–	–
[6], 10 nM	–	–	88.7	–	–
[6], 100 nM	–	–	104	–	–
[6], 1000 nM	–	–	94.2	–	–
[6], 10000 nM	–	–	104	–	–
[7], 0.3 µM	99	–	–	–	–
[7], 3 µM	83	–	–	–	–
[7], 10 µM	20	–	–	–	–
[7], 30 µM	33	–	–	–	–
[8], 24 h	–	–	–	–	4.66
[8], 48 h	–	–	–	–	6.29
[8], 72 h	–	–	–	–	6.67
[10], 0.3 µM	–	–	–	-0.1	–
[10], 3 µM	–	–	–	0.46	–
[10], 10 µM	–	–	–	0.79	–
[10], 30 µM	–	–	–	0.31	–

drug-induced phospholipidosis [%], [9]
Settings	0.3 µM	0.833333 µM	3.33333 µM	6.66667 µM	10 µM	30 µM
24 h	4.09	5.84	24.5	59.8	64.4	78
48 h	4.99	5.4	17.8	56.9	81	99.5
72 h	6.59	6.94	22.7	60.3	85.3	111

Settings	drug sensitivity score	relative viability EC50 [µM]
[11]	–	> 10
[12]	–	> 10
[13]	–	> 10
[14]	–	> 10
[15]	–	> 10
[16]	0	–
[17]	0	–
[18]	0	–
[19]	0	–
[20]	0	–

Source: the supplement of paper PMC13380429
